Reference: patent US20070219220A1, “Pyrazolopyrimidinethione Derivatives, Salts and Solvates Thereof, Preparation Methods and Use Thereof” (priority 2003, published 2007)
Where two headings read alike, the source gives them in different places. Marks after values point to notes of the source that are not given here.

Key:
[1] = cited from earlier work
healthy mice = details: within two hours, cited from earlier work
dog = details: cited from earlier work
rats with testis removed [2] = assay: Penile erection caused by stimulating electric current in rats with testes removed (Example 7); assay type: in vivo, wistar rats; details: for penile swelling time (in words) / latent period of the penile erection (in words): compared with control; for latent period of the penile erection (in words): P<0.001; for Latent period / Swelling time: stimulation 35 min after administration
Description: Methods: Forty healthy adult male wistar rats were used in the study, with the body weight ranging from 230 g to 250 g. The rats were anesthetized with sodium pentobarbital, and their testes were squeezed into the scrotum. After sterilization, the scrotum was dissected with an operation knife. The testes and epididymis were taken out respectively and then ligated. The wound were sutured and 100,000 unit of penicillin was administrated to each rat for three consecutive days. After breeding for one week, the rats were used for the tests. The animals may be used repeatedly and the interval between any two of the tests was one week. […] Sildenafil at the dose of 50 mg/kg was used as the positive control. The control group is (1% sodium carboxymethyl cellulose). In 35 min after the administration, the penis of the rats was stimulated with SEN-3201 stimulator (NIHON KOHDEN, Japan), with the following parameters: the stimulating voltage of 10V, the time interval (T1) of 250 msec, the deferment time (T2) of 10 msec, the duration (T3) of 500 μsec, and the stimulation rank (n) of 25. At the same time, the latent period (sec) of the penile erection and the penile swelling time (min) were recorded with a three-channel stop-watch.

mice with testis removed = assay: Sexual function (back climbing) of testis-removed mice (Example 10); assay type: in vivo, KM mice; details: for Incidence: back climbing within 2 hours after administration; for Times of back climbing / Number of the animals who performed back climbing: within 2 hours after administration; for Number of the animals who performed back climbing: 10 male mice
Description: Methods: Forty healthy KM male mice with the body weight ranging from 28-32 g and forty healthy KM female mice with body weight ranging from 24-28 g were used. Each male mouse was anesthetized with sodium pentobarbital, and the testes were squeezed into the scrotum. After sterilization, the scrotum was dissected with an operating knife. The testes and epididymis were respectively taken out, and then ligated. The wound were sutured and each of the mice was administrated with 100,000 units of penicillin for three consecutive days. After being bred for one week, the mice were used for the tests. The animals may be employed repeatedly and the interval between any two tests was 72 hours. To the mice, the following compounds were orally administered: compound (1), compound (2), compound (3), and compound (4), each at the dose of 80 mg/kg and 40 mg/kg, respectively. The positive control agent was Sildenafil, at the dose of 80 mg/kg. The control group was given with 1% of sodium carboxymethyl cellulose. At 30 min after the administration, the male mice who had taken the above agents were put into the cages of female mice, with the male-to-female rate of 1:1. There were three males and three females in each cage. The times of back climbing on the female mice performed by the male mice, and the percentage of occurrence were observed within 2 hours after the administration.

[3] = Preliminary acute toxicity, Bliss method (Example 13); details: rat, in vivo, oral and intragastric administration, rats
Protocol: Experimental methods: the toxicity test was conducted by oral and intragastric administration of the pyrazolopyrimidinethione derivatives of the invention using the Bliss method.

anesthetized dogs = assay: Blood pressure, heart rate and respiration of anesthetized dogs (Example 11); assay type: in vivo; details: for arterial blood pressure (systolic and diastolic), heart rate and respiration (frequency and depth), in words: oral 40 mg/kg, in 3 hours after administration
Protocol: Methods: eight healthy male dogs with the body weight ranging from 12-15 kg were used. The dogs were anesthetized with 30 mg/kg of sodium pentobarbital. The femoral artery was dissected and inserted with a blood pressure transducer to record the blood pressure. The limbs were pierced with electrodes for recording the electrocardiogram. The respiration belt was wrapped around their chest and the respiration rate was recorded. The apparatus used was RM-6000 Polygraph system (NIHON KOHDEN, Japan). The changes in the arterial blood pressure, the heart rate, and the respiration were observed after the test compound was introduced into the stomach of the anesthetized dogs via 14# catheter.

anesthetized rats = assay: Blood pressure and heart rate of anesthetized rats (Example 12); assay type: in vivo, wistar rats
Protocol: Forty male wistar rats with the body weight ranging from 220-240 g were used in the study. Pharmaceuticals: compound (2) and Sildenafil, which were ground and then suspended with 1% of sodium carboxymethyl cellulose. Apparatus: RM-6000 eight-graph system (NIHON KOHDEN, Japan). The doses for administration and the division of the groups: solvent control group (abbreviated as the control group), 20 mg/kg of compound (2), 40 mg/kg of compound (2), 80 mg/kg of compound (2), and 50 mg/kg of Sildenafil. The administration route is through dodecadactylon. Methods: the male wistar rats were taken out and anesthetized with 35 mg/kg of sodium pentobarbital by injecting into the abdominal cavity, on the basis of their body weight. The rats were fixed on the operation table and were performed with the dissection operation of right carotid artery. The catheter with an external diameter of 1 mm was inserted into the right carotid artery. The blood pressure was measured and the electrodes positioned on the skin of the four limbs were used to record the electrocardiogram limb lead II. The catheter with an external diameter of 2 mm was inserted into the dodecadactylon via incision of the epigastric region, for the administration of the pharmaceuticals. RM-6000 eight-graph system (NIHON KOHDEN, Japan) was employed to record. Observation time: the value before administration, the values at 15, 30, 60, 120 and 180 min after the administration.

rats with testis removed [4] = assay: Duration of penile erection in rats with testis removed (Example 8); assay type: in vivo, wistar rats; details: oral 50 mg/kg
[5] = prior-art filings, background section
[6] = 50 mg/kg through dodecadactylon, at 15 min after administration
[7] = 50 mg/kg through dodecadactylon, at 30 min after administration
[8] = 50 mg/kg through dodecadactylon, at 60 min after administration
[9] = 50 mg/kg through dodecadactylon, at 120 min after administration
[10] = 50 mg/kg through dodecadactylon, value before administration

## CCCc1nn(C)c2c(=O)[nH]c(-c3cc(S(=O)(=O)N4C[C@@H](C)N[C@@H](C)C4)ccc3OCC)nc12 [5-[2-ethoxy-5-(cis-3,5-dimethylpiperazin-1-sulfonyl)phenyl]-1-methyl-3-n-propyl-1,6-dihydro-7H-pyrazolo[4,3d]pyrimidin-7-one]
[1]; [5]
  LD50: 772.5 to 1052.1 mg/kg

## CCCc1nn(CC)c2c(=O)[nH]c(-c3cc(S(=O)(=O)N4C[C@@H](C)N[C@@H](C)C4)ccc3OCC)nc12 [5-[2-ethoxy-5-(cis-3,5-dimethylpiperazine-1-sulfonyl)phenyl]-1-ethyl-3-n-propyl-1,6-dihydro-7H-pyrazolopyrimidin-7-one]
Healthy mice; oral 15 mg/kg
  occurrences of back climbing: 56.6%
  times of back climbing on the female mice performed by the male mice: 43
Healthy mice; oral 30 mg/kg
  occurrences of back climbing: 62.5%
  times of back climbing on the female mice performed by the male mice: 53
dog
  diastolic pressure and heart rate (in words): dramatically decrease diastolic pressure and increase heart rate
[1]; [5]
  LD50: greater than 2000 mg/kg

## CCCc1nn(CC)c2c(=S)[nH]c(-c3cc(S(=O)(=O)N4C[C@@H](C)N[C@@H](C)C4)ccc3OCC)nc12 [Compound (1), 5-[2-ethoxy-5-(cis-3,5-dimethylpiperazin-1-sulfonyl)phenyl]-1-ethyl-3-n-propyl-1,6-dihydro-7H-pyrazolo[4,3-d]pyrimidin-7-thione]
Rats with testis removed [2]
  penile swelling time (in words): lengthened
  latent period of the penile erection (in words): evidently shortened
Rats with testis removed [2]; compared with sildenafil 50 mg/kg
  penile swelling time compared with positive control sildenafil (in words): more evident
Rats with testis removed [2]; oral 20 mg/kg
  Latent period: 28.8 ± 1.7 s
  Swelling time: 1305.1 ± 588.8 s
Rats with testis removed [2]; oral 40 mg/kg
  Latent period: 29.5 ± 4.2 s
  Swelling time: 2943.1 ± 552.9 s
Mice with testis removed; oral 40 mg/kg
  Incidence: 30%
  Times of back climbing: 4
  Number of the animals who performed back climbing: 3
Mice with testis removed; oral 80 mg/kg
  Incidence: 40%
  Times of back climbing: 7*
  Number of the animals who performed back climbing: 4
[3]
  LD50: > 3000 mg/kg
Anesthetized dogs
  arterial blood pressure (systolic and diastolic), heart rate and respiration (frequency and depth), in words: did not experience an evident change

## CCCc1nn(C)c2c(=S)[nH]c(-c3cc(S(=O)(=O)N4C[C@@H](C)N[C@@H](C)C4)ccc3OC)nc12 [Compound (3), 5-[2-methoxy-5-(cis-3,5-dimethylpiperazin-1-sulfonyl)phenyl]-1-methyl-3-n-propyl-1,6-dihydro-7H-pyrazolo[4,3-d]pyrimidin-7-thione]
Rats with testis removed [2]
  penile swelling time (in words): lengthened
  latent period of the penile erection (in words): evidently shortened
Rats with testis removed [2]; oral 20 mg/kg
  Latent period: 32.8 ± 4.4 s
  Swelling time: 551.8 ± 350.8 s
Rats with testis removed [2]; oral 40 mg/kg
  Latent period: 30.4 ± 2.6 s
  Swelling time: 809.6 ± 247.5 s
Mice with testis removed; oral 40 mg/kg
  Incidence: 20%
  Times of back climbing: 2
  Number of the animals who performed back climbing: 2
Mice with testis removed; oral 80 mg/kg
  Incidence: 30%
  Times of back climbing: 4
  Number of the animals who performed back climbing: 3
[3]
  LD50: 2500 mg/kg
Anesthetized dogs
  arterial blood pressure (systolic and diastolic), heart rate and respiration (frequency and depth), in words: did not experience an evident change

## CCCOc1ccc(S(=O)(=O)N2C[C@@H](C)N[C@@H](C)C2)cc1-c1nc2c(CCC)nn(C)c2c(=S)[nH]1 [Compound (4), 5-[2-propoxy-5-(cis-3,5-dimethylpiperazin-1-sulfonyl)phenyl]-1-methyl-3-n-propyl-1,6-dihydro-7H-pyrazolo[4,3-d]pyrimidin-7-thione]
Rats with testis removed [2]
  penile swelling time (in words): lengthened
  latent period of the penile erection (in words): evidently shortened
Mice with testis removed; oral 40 mg/kg
  Incidence: 20%
  Times of back climbing: 3
  Number of the animals who performed back climbing: 2
Mice with testis removed; oral 80 mg/kg
  Incidence: 30%
  Times of back climbing: 5
  Number of the animals who performed back climbing: 3
[3]
  LD50: > 3000 mg/kg
Anesthetized dogs
  arterial blood pressure (systolic and diastolic), heart rate and respiration (frequency and depth), in words: did not experience an evident change

## CCCc1nn(C)c2c(=O)[nH]c(-c3cc(S(=O)(=O)N4CCN(C)CC4)ccc3OCC)nc12 [Sildenafil, reference compound]
Anesthetized rats; 50 mg/kg through dodecadactylon
  blood pressure (in words): began to decrease at 15 min after the administration
Anesthetized rats; [6]
  Heart rate: 445 ± 29.7 times/min
  Systolic pressure: 90 ± 29.7 mmHg
  diastolic pressure: 68 ± 29.7 mmHg
Anesthetized rats; [7]
  Heart rate: 444 ± 29.6 times/min
  Systolic pressure: 90 ± 29.6 mmHg
  diastolic pressure: 70 ± 29.6 mmHg
Anesthetized rats; [8]
  Heart rate: 437 ± 22.8 times/min
  Systolic pressure: 88 ± 22.9 mmHg
  diastolic pressure: 68 ± 22.9 mmHg
Anesthetized rats; [9]
  Heart rate: 439 ± 22.6 times/min
  Systolic pressure: 93 ± 22.6 mmHg
  diastolic pressure: 71 ± 22.6 mmHg
Anesthetized rats; 50 mg/kg through dodecadactylon, before administration
  Heart rate: 429 ± 26.1 times/min
Anesthetized rats; [10]
  Systolic pressure: 120 ± 10.6 mmHg
  diastolic pressure: 98 ± 16.0 mmHg
Anesthetized rats; 50 mg/kg, at 15 and 30 minutes after administration
  effect on the heart rate (in words): increasing the heart rate
Rats with testis removed [2]; oral 50 mg/kg
  Latent period: 28.9 ± 1.7 s
  Swelling time: 2272.5 ± 326.2 s
Healthy mice; oral 50 mg/kg
  occurrences of back climbing: 50%
  times of back climbing on the female mice performed by the male mice: 19
Mice with testis removed; oral 80 mg/kg
  Incidence: 70%
  Number of the animals who performed back climbing: 6*
Anesthetized dogs; Sildenafil 40 mg/kg, mainly diastolic pressure
  blood pressure (in words): apparent effect of decreasing the blood pressure
[1]; as reported in Chinese Journal of Clinical Pharmacology and Therapeutics (1999, 4(3): 237-240)
  LD50: 635 mg/kg
[1]; [5]
  LD50: 635 mg/kg
Rats with testis removed [4]
  how long the penile swelling effect lasts after administration: about 1 hour
Rats with testis removed [4]; at 1 h after administration
  Penile swelling time: 1067.0 ± 204.5 s
Rats with testis removed [4]; at 3 h after administration
  Penile swelling time: 44.0 ± 11.3 s
Rats with testis removed [4]; at 3 hr after the administration
  penile swelling time compared with control group (in words): shorter than that of the control group
Rats with testis removed [4]; at 6 h after administration
  Penile swelling time: 38.8 ± 5.6 s
Rats with testis removed [4]; at 24 h after administration
  Penile swelling time: 61.0 ± 8.7 s
Rats with testis removed [4]; value before administration
  Penile swelling time: 62.8 ± 7.7 s
